Tests used:
[1] = test system: LSD1; details: Figure 1, reported LSD1 inhibitors; cited from earlier work
[2] = molecular target: LSD1 demethylase (Homo sapiens, UniProt O60341); test: LSD1 demethylase inhibition assay
Method: The inhibition of LSD1 activity by our tested compounds was evaluated according to a previously reported procedure [65, 66, 67, 68] and as mentioned in the assay kit in Supplementary Materials.

[3] = test system: HCT116 cells; test: MTT cytotoxicity assay, HCT116; details: Homo sapiens, HCT-116, 72 h, read-out: In Vitro Cytotoxicity IC50 HCT116
Method: (§1) The in vitro cytotoxic testing of novel derivatives was performed against different three cancer cell lines, HepG2, MCF-7, and HCT116, using standard MTT assay as previously reported [22, 62, 63, 64].

[4] = test system: MCF-7 cells; test: MTT cytotoxicity assay, MCF-7; details: Homo sapiens, MCF7, 72 h, read-out: In Vitro Cytotoxicity IC50 MCF-7
Method: as §1

[5] = test system: HepG2 cells; test: MTT cytotoxicity assay, HepG2; details: Homo sapiens, HepG2, 72 h, read-out: In Vitro Cytotoxicity IC50 HepG2
Method: as §1

[6] = test system: HepG2 and MCF-7 cells; test: DNA fragmentation, diphenylamine test; format: cell-based, human; details: 24 h at IC50 value, untreated control about 4.7 ± 0.2%
Method: Apoptosis is characterized by DNA fragmentation, which occurs in all stages of the process. The percentage of fragmented DNA released into the cytoplasm from apoptotic nuclei was determined using a diphenylamine test.
DNA fragmentation was quantitatively determined using a diphenylamine (DPA) reagent according to the method of Boraschi and Maurizi.

[7] = in vitro; details: human, WI38 normal lung fibroblast cells
[8] = LSD1 inhibitory IC50, Table 2, mean ± S.D., at least three tests
[9] = LSD1 inhibition IC50, as quoted in the docking section

Row | SMILES | IC50 [1] | melting point | IC50 [2, 8] | IC50 [3] | IC50 [4] | IC50 [5] | Percentage of DNA fragmentation [6] | IC50 [2, 9] | IC50 at 72 h [7]
1 | CCCSc1nc(Sc2nnc(C)s2)c2nnn(CCO)c2n1 [Compound 7] | 3930 nM | – | – | – | – | – | – | – | –
2 | Cc1ccc(Cn2cc(CSC(=S)N3CCN(C(=O)OC(C)(C)C)CC3)nn2)cc1 [Compound 8] | 650 nM | – | – | – | – | – | – | – | –
3 | Cn1c(-c2cc(-c3n[nH]c(=S)n3C)cc(-c3n[nH]c(=S)n3C)c2)n[nH]c1=S [Compound 18, 3,3′,3″-(benzene-1,3,5-triyl)tris(4-methyl-1H-1,2,4-triazole-5(4H)-thione)] | – | 279 to 281 °C | 1510 ± 75 nM | 38.6 ± 0.75 µM | 23.9 ± 0.52 µM | 26.1 ± 0.76 µM | – | – | –
4 | CCn1c(-c2cc(-c3n[nH]c(=S)n3CC)cc(-c3n[nH]c(=S)n3CC)c2)n[nH]c1=S [Compound 19, 3,3′,3″-(benzene-1,3,5-triyl)tris(4-ethyl-1H-1,2,4-triazole-5(4H)-thione)] | – | 266 to 268 °C | 170 ± 8 nM | 21.6 ± 0.16 µM | 9.66 ± 0.76 µM | 55.3 ± 0.44 µM | – | – | –
5 | S=c1[nH]nc(-c2cc(-c3n[nH]c(=S)n3C3CCCCC3)cc(-c3n[nH]c(=S)n3C3CCCCC3)c2)n1C1CCCCC1 [Compound 20, 3,3′,3″-(benzene-1,3,5-triyl)tris(4-cyclohexyl-1H-1,2,4-triazole-5(4H)-thione)] | – | 251 to 252 °C | 137 ± 6 nM | 10.1 ± 0.37 µM | 13.7 ± 0.41 µM | 2.65 ± 0.69 µM | approximately 28.5 ± 1.5% | – | –
6 | C=CCn1c(-c2cc(-c3n[nH]c(=S)n3CC=C)cc(-c3n[nH]c(=S)n3CC=C)c2)n[nH]c1=S [Compound 21, 3,3′,3″-(benzene-1,3,5-triyl)tris(4-allyl-1H-1,2,4-triazole-5(4H)-thione)] | – | 287 to 288 °C | 320 ± 16 nM | 3.56 ± 0.22 µM | 5.83 ± 0.18 µM | 2.36 ± 0.34 µM | – | – | –
7 | S=c1[nH]nc(-c2cc(-c3n[nH]c(=S)n3Cc3ccccc3)cc(-c3n[nH]c(=S)n3Cc3ccccc3)c2)n1Cc1ccccc1 [Compound 22, 3,3′,3″-(benzene-1,3,5-triyl)tris(4-benzyl-1H-1,2,4-triazole-5(4H)-thione)] | – | 240 to 241 °C | 74 ± 2 nM | 5.27 ± 0.16 µM | 2.65 ± 0.23 µM | 8.23 ± 0.85 µM | – | 46.4 nM | 16 ± 0.52 µM
8 | S=c1[nH]nc(-c2cc(-c3n[nH]c(=S)n3-c3ccccc3)cc(-c3n[nH]c(=S)n3-c3ccccc3)c2)n1-c1ccccc1 [Compound 23, 3,3′,3″-(benzene-1,3,5-triyl)tris(4-phenyl-1H-1,2,4-triazole-5(4H)-thione)] | – | 229 to 230 °C | 65 ± 3 nM | 2.01 ± 0.91 µM | 26.1 ± 0.69 µM | 5.49 ± 0.38 µM | – | 65.1 nM | –
9 | CNc1nnc(-c2cc(-c3nnc(NC)s3)cc(-c3nnc(NC)s3)c2)s1 [Compound 24, 5,5′,5″-(benzene-1,3,5-triyl)tris(N-methyl-1,3,4-thiadiazol-2-amine)] | – | 247 to 248 °C | 450 ± 22 nM | 18.1 ± 1.05 µM | 9.2 ± 0.31 µM | 6.47 ± 0.69 µM | – | – | –
10 | CCNc1nnc(-c2cc(-c3nnc(NCC)s3)cc(-c3nnc(NCC)s3)c2)s1 [Compound 25, 5,5′,5″-(benzene-1,3,5-triyl)tris(N-ethyl-1,3,4-thiadiazol-2-amine)] | – | 233 to 234 °C | 140 ± 7 nM | 28.9 ± 0.32 µM | 28.1 ± 1.1 µM | 13 ± 0.71 µM | – | – | –
11 | c1c(-c2nnc(NC3CCCCC3)s2)cc(-c2nnc(NC3CCCCC3)s2)cc1-c1nnc(NC2CCCCC2)s1 [Compound 26, 5,5′,5″-(benzene-1,3,5-triyl)tris(N-cyclohexyl-1,3,4-thiadiazol-2-amine)] | – | 218 to 219 °C | 311 ± 15 nM | 17.6 ± 0.71 µM | 17.1 ± 3.1 µM | 95.7 ± 3.1 µM | – | – | –
12 | c1ccc(Nc2nnc(-c3cc(-c4nnc(Nc5ccccc5)s4)cc(-c4nnc(Nc5ccccc5)s4)c3)s2)cc1 [Compound 28, 5,5′,5″-(benzene-1,3,5-triyl)tris(N-phenyl-1,3,4-thiadiazol-2-amine)] | – | 204 to 205 °C | 210 ± 10 nM | 110 ± 0.85 µM | 2.34 ± 2.3 µM | 25.6 ± 0.18 µM | – | – | –
13 | CC(=O)O[C@H]1C(=O)[C@@]2(C)[C@H]([C@H](OC(=O)c3ccccc3)[C@]3(O)C[C@H](OC(=O)[C@H](O)[C@@H](NC(=O)c4ccccc4)c4ccccc4)C(C)=C1C3(C)C)[C@]1(OC(C)=O)CO[C@@H]1C[C@@H]2O [Taxol, reference compound] | – | – | – | 7.96 ± 0.38 µM | 7.8 ± 0.42 µM | 4.44 ± 0.24 µM | – | – | 11.8 ± 0.44 µM

— publication PMC9369007 (International Journal of Molecular Sciences, 2022)
